# Experimental data published in patent US20240398725A1, “NANOPARTICLES FOR CANCER TREATMENT” (priority 2021, published 2024).
# pIC50: −log10 of the molar value.
# How the values were obtained:
# SW872-DXR = experiment: MTS assay, doxorubicin IC50 in doxorubicin-resistant SW872-DXR; type: cell-based; details: Homo sapiens
# Description: (§1) The dedifferentiated liposarcoma cell line (SW872) is one of the earliest STS model systems that has been extensively studied in preclinical investigations (Dodd 2010, Stratford 2012).
# (§2) The SW872-DXR model was derived from the commercial cell line SW872. The resistance to doxorubicin was initiated in 2D cultures, by adding increased concentrations of doxorubicin every 2 weeks, starting from the IC50 concentrations of doxorubicin of the “parental” cell line SW872. The resistance of this cell line was verified by 3-(4,5-dimethylthiazol-2-yl)-5-(3-carboxymethoxyphenyl)-2-(4-sulfophenyl)-2H-tetrazolium (MTS) assay.
# SW872 = experiment: MTS assay, doxorubicin IC50 in parental cell line SW872; type: cell-based; details: Homo sapiens
# Description: as §1, §2
compound,measurement,setting,value
COc1cccc2c1C(=O)c1c(O)c3c(c(O)c1C2=O)C[C@@](O)(C(=O)CO)C[C@@H]3O[C@H]1C[C@H](N)[C@H](O)[C@H](C)O1 [doxorubicin],pIC50,SW872-DXR,< 6.00
same,pIC50,SW872,~6.70
